Experimental data reported in patent US4283329A, “Pharmacologically active peptides” (Eli Lilly and Company, priority 1979, dated 1981).
Where a SMILES comes first, the peptide text is derived from it. [ ]: non-standard residue; d: D form. Phe(4-F) = N[C@@H](Cc1ccc(F)cc1)C(=O)O; NMeM = CN[C@@H](CCSC)C(=O)O

System: not given
Test: not given
Details: administered parenterally; cited from earlier work

In the case of “H-Tyr-Gly-Gly-Phe-Leu-OH [leucine enkephalin]”, the analgesic activity is given as “practically devoid of any useful analgesic activity”.
In the case of “H-Tyr-Gly-Gly-Phe-Met-OH [methionine enkephalin]”, the analgesic activity is given as “practically devoid of any useful analgesic activity”.

System: mouse
Test: mouse hot plate test (analgesic activity)
Type: in vivo
Details: subcutaneous, hot plate 52° C., 15 minutes after administration, latency until jump
Protocol: In this test, a mouse is placed inside on upright acrylic cylinder comprising, as its base, a hot plate surface which is maintained at 52° C. The mouse is given, orally or by subcutaneous injection, a predetermined amount of test compound dissolved or suspended in a suitable carrier, and, 15 minutes after administration of the test compound, the mouse is placed on the hot plate surface. The latency in seconds until the mouse jumps from the hot plate surface is measured. […] This must occur in a dose range which produces no motor incoordination or incapacitation. The following Table records the ED50 results obtained from this test.

Going from CSCC[C@@H](C(N)=O)N(C)C(=O)[C@H](Cc1ccc(F)cc1)NC(=O)CNC(=O)[C@@H](C)NC(=O)[C@@H](N)Cc1ccc(O)cc1 [Example 1, L-Tyrosyl-D-alanyl glycyl-L-p-fluorophenylalanyl-L-(N^α -methyl)methionin amide] to CSCC[C@@H](C(N)=O)N(C)C(=O)[C@H](Cc1ccc(F)cc1)NC(=O)CNC(=O)[C@H](NC(=O)[C@@H](N)Cc1ccc(O)cc1)[C@H](C)O [Example 4, L-Tyrosyl-D-threonylglycyl-L-p-fluorophenylalanyl-L-(N^α -methyl)methioninamide] (H-Y[dT]G[Phe(4-F)][NMeM]-NH2), the “Analgesic Activity, Hot Plate Test, ED50” value rises from 0.023 mg/kg to 0.088 mg/kg (3.8-fold).

Going from COc1ccc([C@H](NC(=O)[C@H](Cc2ccc(F)cc2)NC(=O)CNC(=O)[C@@H](C)NC(=O)[C@@H](N)Cc2ccc(O)cc2)C(N)=O)cc1 [Example 2, L-Tyrosyl-D-alanyl-glycyl-L-p-fluorophenylalanyl-L-p-methoxyphenylglycinamide] to C[C@@H](NC(=O)[C@@H](N)Cc1ccc(O)cc1)C(=O)NCC(=O)N[C@@H](Cc1ccc(F)cc1)C(=O)N[C@@H](C(N)=O)c1ccccc1 [Example 3 D-Pgl, L-Tyrosyl-D-alanyl-glycyl-L-p-fluorophenylalanyl-D-phenylglycinamide], the “Analgesic Activity, Hot Plate Test, ED50” value falls from 1.04 mg/kg to 0.103 mg/kg (10-fold).

With C[C@@H](NC(=O)[C@@H](N)Cc1ccc(O)cc1)C(=O)NCC(=O)N[C@@H](Cc1ccc(F)cc1)C(=O)N[C@H](C(N)=O)c1ccccc1 [Example 3 L-Pgl, L-Tyrosyl-D-alanyl-glycyl-L-p-fluorophenylalanyl-L-phenylglycinamide] the “Analgesic Activity, Hot Plate Test, ED50” value was 0.063 mg/kg.
